Data reported in PubChem BioAssay (NCI).
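How tested: cells in 96-well plates exposed to compound for 48 hours at five concentrations. TGI is the concentration that stops growth completely.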

Experiments:
Experiment in all cases: NCI anticancer screen, dose series, 48 h
PC-3 prostate = tested on: PC-3 prostate
NCI/ADR-RES ovarian = tested on: NCI/ADR-RES ovarian
IGROV1 ovarian = tested on: IGROV1 ovarian
LOX IMVI melanoma = tested on: LOX IMVI melanoma
HCT-15 colon = tested on: HCT-15 colon
RXF 393 renal = tested on: RXF 393 renal
SK-MEL-2 melanoma = tested on: SK-MEL-2 melanoma
MDA-N = tested on: MDA-N
NCI-H226 lung = tested on: NCI-H226 lung
A549 NSCLC = tested on: A549 NSCLC
CAKI-1 renal = tested on: CAKI-1 renal
DU-145 prostate = tested on: DU-145 prostate
SF-295 CNS = tested on: SF-295 CNS
T-47D breast = tested on: T-47D breast
HL-60(TB) leukemia = tested on: HL-60(TB) leukemia
HT29 colon = tested on: HT29 colon
NCI-H460 lung = tested on: NCI-H460 lung
SNB-19 CNS = tested on: SNB-19 CNS

| SMILES | TGI (PC-3 prostate) | TGI (NCI/ADR-RES ovarian) | TGI (IGROV1 ovarian) | TGI (LOX IMVI melanoma) | TGI (HCT-15 colon) | TGI (RXF 393 renal) | TGI (SK-MEL-2 melanoma) | TGI (MDA-N) | TGI (NCI-H226 lung) | TGI (A549 NSCLC) | TGI (CAKI-1 renal) | TGI (DU-145 prostate) | TGI (SF-295 CNS) | TGI (T-47D breast) | TGI (HL-60(TB) leukemia) | TGI (HT29 colon) | TGI (NCI-H460 lung) | TGI (SNB-19 CNS) |
| --- | --- | --- | --- | --- | --- | --- | --- | --- | --- | --- | --- | --- | --- | --- | --- | --- | --- | --- |
| Clc1cc2nc(C3CCCCO3)[nH]c2cc1Cl (configuration not stated) | > 100 µM | > 52.1 µM | > 100 µM | > 100 µM | > 100 µM | > 52.6 µM | > 100 µM | 22.8 µM | > 100 µM | > 100 µM | > 100 µM | > 100 µM | > 100 µM | > 93.9 µM | > 53.5 µM | 25.8 µM | > 100 µM | > 100 µM |
| Cc1ccc(S(=O)(=O)NN=C2C(C)(C)CC2(C)C)cc1 | > 100 µM | > 100 µM | > 100 µM | > 100 µM | > 100 µM | > 100 µM | > 100 µM | > 100 µM | > 100 µM | > 100 µM | > 100 µM | > 100 µM | > 100 µM | > 100 µM | > 100 µM | > 100 µM | > 100 µM | > 100 µM |
| CC1(c2nc3ccccc3[nH]2)CCC(C#N)C(C)(C)O1 (configuration not stated) | > 100 µM | > 100 µM | > 100 µM | > 100 µM | > 100 µM | > 100 µM | > 100 µM | > 100 µM | > 100 µM | > 100 µM | > 100 µM | > 100 µM | > 100 µM | > 100 µM | > 100 µM | > 100 µM |  | > 100 µM |
| CC(=O)c1cc2c(s1)C(=O)c1ccsc1C2=O | 1.15 µM | 2.59 µM | 3.4 µM | 0.0782 µM | 0.367 µM | 0.683 µM | 1.37 µM | 0.197 µM | 3.75 µM | 4.2 µM | 4.29 µM | 0.743 µM | 0.307 µM | 6.82 µM | 0.369 µM | 4.19 µM |  | 1.02 µM |
| CC1=NN(c2cccc(Cl)c2)C2(C1=Cc1cccs1)C(Cl)C(=O)N2c1nc2ccccc2s1 (configuration not stated) | 48.7 µM | 45.4 µM | > 100 µM | 42.1 µM | 51.7 µM | 45.8 µM | 36.5 µM | 48.1 µM | 53.5 µM | 63.7 µM | 84.5 µM | > 100 µM | 55.9 µM | > 100 µM | 61 µM | 46 µM | 45.4 µM |  |
| CCOC(=O)NC(Nc1ccc(S(=O)(=O)Nc2ccc(OC)nn2)cc1)(C(F)(F)F)C(F)(F)F | > 100 µM | 59.9 µM | 54 µM | 82 µM | > 100 µM | 34.8 µM |  | > 100 µM | 75.9 µM | > 100 µM | > 100 µM | > 100 µM | > 100 µM | > 100 µM | 58.2 µM | > 100 µM | > 100 µM | > 100 µM |
| Cc1nn(C(=O)c2ccc(Cl)cc2)c2c1C(c1ccccc1O)SC(N)=N2 (configuration not stated) | > 10 µM | > 10 µM | > 10 µM | > 10 µM | > 10 µM | > 10 µM | > 10 µM | > 10 µM | > 10 µM | > 10 µM | > 10 µM | > 10 µM | > 10 µM | > 10 µM | > 10 µM | > 10 µM | > 10 µM | > 10 µM |
